The Emax is the maximal effect, on the per cent scale that the assay sets.

The structures appear in SMILES notation. Where two headings read alike, the source gives them in different places.

The text below walks through data of patent US20260176320A1, “MODULATORS OF G-PROTEIN COUPLED RECEPTORS” (priority 2018, published 2026).

Holding throughout (format): cell-based
For test [1], the target named is T1, GLP-1R (Homo sapiens, UniProt P43220). The test is described as follows: PathHunter β-arrestin assay. An outline of the steps:
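Cells seeded overnight, then medium replaced with medium containing 0.2% BSA; agonists added as 22-point 2-fold DMSO dilution series in duplicate and incubated 90 min at 37 °C, 5% CO2. After addition of detection solution, plates sat 3 h at room temperature in the dark; luminescence read.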

The target of another test is T2, GIP-R (Homo sapiens, UniProt P48546).
T2 sequence (P48546 22-466): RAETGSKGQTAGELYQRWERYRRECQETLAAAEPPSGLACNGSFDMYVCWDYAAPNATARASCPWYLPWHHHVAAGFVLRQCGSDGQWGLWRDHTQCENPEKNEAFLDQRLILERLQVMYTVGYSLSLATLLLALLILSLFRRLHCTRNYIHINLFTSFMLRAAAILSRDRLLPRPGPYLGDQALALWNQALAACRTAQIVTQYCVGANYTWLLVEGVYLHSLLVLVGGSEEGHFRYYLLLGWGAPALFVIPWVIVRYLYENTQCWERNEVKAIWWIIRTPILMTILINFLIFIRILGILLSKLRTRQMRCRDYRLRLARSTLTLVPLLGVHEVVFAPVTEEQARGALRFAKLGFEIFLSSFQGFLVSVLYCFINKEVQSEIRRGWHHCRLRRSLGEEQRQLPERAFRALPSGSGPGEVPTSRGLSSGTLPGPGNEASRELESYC
Nature of the test: HitHunter cAMP assay (GIP-R). To be noted: for Emax: read-out: (Emax) GIP-R. An outline of the steps:
(§1)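 Suspension cells expressing each receptor (10,000 per well) in HBSS with 10 mM HEPES, 625 μM IBMX and 0.2% BSA were treated with a 22-point 2-fold agonist series in duplicate for 30 minutes at room temperature. cAMP was detected by antibody immunocompetition with luminescence read after overnight incubation.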
Background: Cyclic AMP is a second messenger, typically raised through Gs and lowered through Gi signalling.

The target in test [2] is T1, GLP-1R. The test is described as follows: HitHunter cAMP assay (GLP-1R). To be noted: for Emax: read-out: (Emax) GLP-1R. The essentials:
as §1

Setting [3] is: PathHunter β-arrestin assay, read-out: β-arrestin activity EC50.
Where [4] appears, read: Table 3, cAMP, read-out: EC50 GIP-R/nM.
[5] abbreviates: Table 3A, cAMP, read-out: EC50 GIP-R/nM.
[6] abbreviates: Table 3, cAMP, read-out: EC50 GLP-1R/nM.
The mark [7] stands for this setting: Table 3A, cAMP, read-out: EC50 GLP-1R/nM.

T1 sequence (P43220 24-463): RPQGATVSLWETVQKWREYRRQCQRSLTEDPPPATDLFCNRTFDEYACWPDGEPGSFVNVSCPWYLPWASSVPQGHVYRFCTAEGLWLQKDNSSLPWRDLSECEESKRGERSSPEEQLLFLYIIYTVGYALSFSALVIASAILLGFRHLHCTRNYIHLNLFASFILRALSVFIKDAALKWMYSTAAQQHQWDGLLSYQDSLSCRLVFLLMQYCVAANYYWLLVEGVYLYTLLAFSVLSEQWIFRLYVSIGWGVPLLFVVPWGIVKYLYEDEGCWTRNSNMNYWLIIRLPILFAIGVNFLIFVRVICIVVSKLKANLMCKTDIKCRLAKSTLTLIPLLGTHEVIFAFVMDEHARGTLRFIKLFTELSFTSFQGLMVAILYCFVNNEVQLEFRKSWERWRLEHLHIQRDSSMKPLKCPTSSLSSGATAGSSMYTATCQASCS

Consider `CCCCCCCCCCCCCCCC(=O)N[C@@H](CCC(=O)NCCCC[C@H](NC(=O)[C@H](CO)NC(=O)[C@@H]1CCCN1C(=O)[C@@H]1CCCN1C(=O)[C@@H]1CCCN1C(=O)[C@H](C)NC(=O)CNC(=O)[C@H](CO)NC(=O)[C@H](CO)NC(=O)[C@@H]1CCCN1C(=O)CNC(=O)CNC(=O)[C@H](C)NC(=O)[C@H](CC(C)C)NC(=O)[C@H](CC(C)C)NC(=O)[C@H](Cc1c[nH]c2ccccc12)NC(=O)[C@H](CC(N)=O)NC(=O)[C@@H](NC(=O)[C@H](Cc1ccccc1)NC(=O)[C@H](CCC(=O)O)NC(=O)C(C)(C)NC(=O)[C@H](C)NC(=O)[C@H](C)NC(=O)[C@H](CCC(N)=O)NC(=O)[C@H](CCCCN)NC(=O)[C@H](CC(=O)O)NC(=O)[C@H](CC(C)C)NC(=O)[C@H](Cc1ccc(O)cc1)NC(=O)[C@@H](NC(=O)[C@H](CO)NC(=O)[C@H](Cc1ccc(O)cc1)NC(=O)[C@H](CC(=O)O)NC(=O)[C@H](CO)NC(=O)[C@@H](NC(=O)[C@H](Cc1ccccc1)NC(=O)[C@@H](NC(=O)CNC(=O)[C@H](CCC(=O)O)NC(=O)CSCC(=O)NCCN1CCCOC1=O)[C@@H](C)O)[C@@H](C)O)[C@@H](C)CC)C(C)C)C(N)=O)C(=O)O` [Compound 6], for which the EC50 at GLP-1R [1] (setting [3]) was greater than 1000 nM; at GIP-R (setting [4]), 1 to 10 nM; on GIP-R (setting [5]), 1 to 10 nM; at GLP-1R [2] (setting [6]), 0.1 to 1 nM; at GLP-1R [2] (setting [7]), 0.1 to 1 nM. The maximum response (Emax) on GIP-R (Table 3, cAMP) came out at 75%; on GIP-R (Table 3A, cAMP), 75%; at GLP-1R [2] (Table 3, cAMP), 95%; on GLP-1R [2] (Table 3A, cAMP) it was 95%.
Turning to `CCCCCCCCCCCCCCCC(=O)N[C@@H](CCC(=O)NCCCC[C@H](NC(=O)[C@H](CO)NC(=O)[C@@H]1CCCN1C(=O)[C@@H]1CCCN1C(=O)[C@@H]1CCCN1C(=O)[C@H](C)NC(=O)CNC(=O)[C@H](CO)NC(=O)[C@H](CO)NC(=O)[C@@H]1CCCN1C(=O)CNC(=O)CNC(=O)[C@H](C)NC(=O)[C@H](CC(C)C)NC(=O)[C@H](CC(C)C)NC(=O)[C@H](Cc1c[nH]c2ccccc12)NC(=O)[C@H](CC(N)=O)NC(=O)[C@@H](NC(=O)[C@H](Cc1ccccc1)NC(=O)[C@H](CCC(=O)O)NC(=O)C(C)(C)NC(=O)[C@H](C)NC(=O)[C@H](C)NC(=O)[C@H](CCC(N)=O)NC(=O)[C@H](CCCCN)NC(=O)[C@H](CC(=O)O)NC(=O)[C@H](CC(C)C)NC(=O)[C@H](Cc1ccc(O)cc1)NC(=O)[C@@H](NC(=O)[C@H](CO)NC(=O)[C@H](Cc1ccc(O)cc1)NC(=O)[C@H](CC(=O)O)NC(=O)[C@H](CO)NC(=O)[C@@H](NC(=O)[C@H](Cc1ccccc1)NC(=O)[C@@H](NC(=O)CNC(=O)[C@H](CCC(=O)O)NC(=O)CSCC(=O)NCCN1CC(=O)NCC1=O)[C@@H](C)O)[C@@H](C)O)[C@@H](C)CC)C(C)C)C(N)=O)C(=O)O` [Compound 25], the EC50 at GLP-1R [1] (setting [3]) was greater than 1000 nM; on GIP-R (setting [4]), 1 to 10 nM; at GIP-R (setting [5]) it was 1 to 10 nM; at GLP-1R [2] (setting [6]) it was 1 to 10 nM; on GLP-1R [2] (setting [7]), 1 to 10 nM. The Emax amounted to 43% on GIP-R (Table 3, cAMP); 43% at GIP-R (Table 3A, cAMP); 86% on GLP-1R [2] (Table 3, cAMP); 86% at GLP-1R [2] (Table 3A, cAMP).
Regarding `CC[C@H](C)[C@H](NC(=O)[C@H](CO)NC(=O)[C@H](Cc1ccc(O)cc1)NC(=O)[C@H](CC(=O)O)NC(=O)[C@H](CO)NC(=O)[C@@H](NC(=O)[C@H](Cc1ccccc1)NC(=O)[C@@H](NC(=O)CNC(=O)[C@H](CCC(=O)O)NC(=O)CCNC(=O)CCCN1C(=O)c2ccccc2C1=O)[C@@H](C)O)[C@@H](C)O)C(=O)N[C@@H](Cc1ccc(O)cc1)C(=O)N[C@@H](CC(C)C)C(=O)N[C@@H](CC(=O)O)C(=O)N[C@@H](CCCCN)C(=O)N[C@@H](CCC(N)=O)C(=O)N[C@@H](C)C(=O)N[C@@H](C)C(=O)NC(C)(C)C(=O)N[C@@H](CCC(=O)O)C(=O)N[C@@H](Cc1ccccc1)C(=O)N[C@H](C(=O)N[C@@H](CC(N)=O)C(=O)N[C@@H](Cc1c[nH]c2ccccc12)C(=O)N[C@@H](CC(C)C)C(=O)N[C@@H](CC(C)C)C(=O)N[C@@H](C)C(=O)NCC(=O)NCC(=O)N1CCC[C@H]1C(=O)N[C@@H](CO)C(=O)N[C@@H](CO)C(=O)NCC(=O)N[C@@H](C)C(=O)N1CCC[C@H]1C(=O)N1CCC[C@H]1C(=O)N1CCC[C@H]1C(=O)N[C@@H](CO)C(=O)N[C@@H](CCCCN)C(N)=O)C(C)C` [Compound 146], the EC50 at GLP-1R [1] (setting [3]) was greater than 1000 nM; at GIP-R (setting [4]) it was 10 to 100 nM; on GIP-R (setting [5]) it was 1 to 10 nM; at GLP-1R [2] (setting [6]) it was 1 to 10 nM; at GLP-1R [2] (setting [7]), 1 to 10 nM. The maximum response (Emax) was in the range of 83 to 97% on GIP-R (Table 3, cAMP); 83 to 97% on GIP-R (Table 3A, cAMP); 86 to 92% on GLP-1R [2] (Table 3, cAMP); 86 to 92% at GLP-1R [2] (Table 3A, cAMP).
On to `CC[C@H](C)[C@H](NC(=O)[C@H](CO)NC(=O)[C@H](Cc1ccc(O)cc1)NC(=O)[C@H](CC(=O)O)NC(=O)[C@H](CO)NC(=O)[C@@H](NC(=O)[C@H](Cc1ccccc1)NC(=O)[C@@H](NC(=O)CNC(=O)[C@H](CCC(=O)O)NC(=O)C1(C(=O)NCCN2C(=O)CSC2=O)CCC1)[C@@H](C)O)[C@@H](C)O)C(=O)N[C@@H](Cc1ccc(O)cc1)C(=O)N[C@@H](CC(C)C)C(=O)N[C@@H](CC(=O)O)C(=O)N[C@@H](CCCCN)C(=O)N[C@@H](CCC(N)=O)C(=O)N[C@@H](C)C(=O)N[C@@H](C)C(=O)NC(C)(C)C(=O)N[C@@H](CCC(=O)O)C(=O)N[C@@H](Cc1ccccc1)C(=O)N[C@H](C(=O)N[C@@H](CC(N)=O)C(=O)N[C@@H](Cc1c[nH]c2ccccc12)C(=O)N[C@@H](CC(C)C)C(=O)N[C@@H](CC(C)C)C(=O)N[C@@H](C)C(=O)NCC(=O)NCC(=O)N1CCC[C@H]1C(=O)N[C@@H](CO)C(=O)N[C@@H](CO)C(=O)NCC(=O)N[C@@H](C)C(=O)N1CCC[C@H]1C(=O)N1CCC[C@H]1C(=O)N1CCC[C@H]1C(=O)N[C@@H](CO)C(=O)N[C@@H](CCCCN)C(N)=O)C(C)C` [Compound 134], for which the EC50 on GLP-1R [1] was 10 to 1000 nM; on GIP-R (EC50 GIP-R/nM, Table 3, cAMP) it was 10 to 100 nM; on GIP-R (EC50 GIP-R/nM, Table 3A, cAMP), 10 to 100 nM; at GLP-1R [2], less than 0.1 nM; at GLP-1R [2] (read-out: EC50 GLP-1R/nM, Table 3A, cAMP) it was less than 0.1 nM. The Emax is 30% at GIP-R and 103 to 108% at GLP-1R [2]. Besides, the “(Emax) GLP-1R” value on GLP-1R [2] (Table 3A, cAMP) is on record as 103-108%.
In the case of `CC[C@H](C)[C@H](NC(=O)[C@H](CO)NC(=O)[C@H](Cc1ccc(O)cc1)NC(=O)[C@H](CC(=O)O)NC(=O)[C@H](CO)NC(=O)[C@@H](NC(=O)[C@H](Cc1ccccc1)NC(=O)[C@@H](NC(=O)CNC(=O)[C@H](CCC(=O)O)NC(=O)CCCNC(=O)CCN1C(=O)CSC1=O)[C@@H](C)O)[C@@H](C)O)C(=O)N[C@@H](Cc1ccc(O)cc1)C(=O)N[C@@H](CC(C)C)C(=O)N[C@@H](CC(=O)O)C(=O)N[C@@H](CCCCN)C(=O)N[C@@H](CCC(N)=O)C(=O)N[C@@H](C)C(=O)N[C@@H](C)C(=O)NC(C)(C)C(=O)N[C@@H](CCC(=O)O)C(=O)N[C@@H](Cc1ccccc1)C(=O)N[C@H](C(=O)N[C@@H](CC(N)=O)C(=O)N[C@@H](Cc1c[nH]c2ccccc12)C(=O)N[C@@H](CC(C)C)C(=O)N[C@@H](CC(C)C)C(=O)N[C@@H](C)C(=O)NCC(=O)NCC(=O)N1CCC[C@H]1C(=O)N[C@@H](CO)C(=O)N[C@@H](CO)C(=O)NCC(=O)N[C@@H](C)C(=O)N1CCC[C@H]1C(=O)N1CCC[C@H]1C(=O)N1CCC[C@H]1C(=O)N[C@@H](CO)C(=O)N[C@@H](CCCCN)C(N)=O)C(C)C` [Compound 165], the EC50 at GLP-1R [1] (setting [3]) is greater than 1000 nM; on GIP-R (setting [4]), 1 to 10 nM; at GIP-R (setting [5]) it was 1 to 10 nM; on GLP-1R [2] (setting [6]), 0.1 to 1 nM; at GLP-1R [2] (setting [7]), 0.1 to 1 nM. Also, the Emax on GIP-R (Table 3, cAMP) was in the range of 91 to 98%; on GIP-R (Table 3A, cAMP), 91 to 98%; at GLP-1R [2] (Table 3, cAMP), 101 to 106%; on GLP-1R [2] (Table 3A, cAMP) it was 101 to 106%.
